Test results as given in the NIST ThermoML archive (doi:10.1021/je1007907).
Numbers after ± are expanded uncertainties.

Conditions: Liquid

`CCCCn1cc[n+](C)c1.F[B-](F)(F)F` [1-butyl-3-methylimidazolium tetrafluoroborate] showed a mass density (239.75 K, 1875.4 kPa) of 1243.62 ± 0.78 kg/m3, a mass density (244.15 K, 9187.2 kPa) of 1243.32 ± 0.82 kg/m3 and a mass density (244.15 K, 30106 kPa) of 1251.69 ± 1 kg/m3. It also gave a mass density (250.8 K, 41033 kPa) of 1251.23 ± 1.1 kg/m3, a mass density (251.15 K, 20631 kPa) of 1242.83 ± 0.9 kg/m3 and a mass density (251.62 K, 1431.5 kPa) of 1234.33 ± 0.76 kg/m3. It also gave a mass density (256.79 K, 51047 kPa) of 1250.8 ± 1.3 kg/m3, a mass density (257.25 K, 10286 kPa) of 1233.95 ± 0.8 kg/m3 and a mass density (257.26 K, 30540 kPa) of 1242.41 ± 1 kg/m3. For the same compound, the mass density (262.28 K, 59764 kPa) was 1250.41 ± 1.4 kg/m3, the mass density (263.49 K, 40569 kPa) was 1241.97 ± 1.1 kg/m3 and the mass density (263.7 K, 20360 kPa) was 1233.5 ± 0.88 kg/m3. The mass density (264.47 K, 1197.4 kPa) was 1225.08 ± 0.75 kg/m3, the mass density (269.79 K, 50298 kPa) was 1241.52 ± 1.2 kg/m3 and the mass density (270.25 K, 9963.8 kPa) was 1224.68 ± 0.78 kg/m3. It also gave a mass density (270.25 K, 30434 kPa) of 1233.04 ± 0.97 kg/m3, a mass density (275.57 K, 59083 kPa) of 1241.11 ± 1.4 kg/m3 and a mass density (276.95 K, 19845 kPa) of 1224.21 ± 0.86 kg/m3. The mass density (276.97 K, 40555 kPa) was 1232.57 ± 1.1 kg/m3, the mass density (278.13 K, 1660 kPa) was 1215.35 ± 0.74 kg/m3 and the mass density (283.48 K, 50231 kPa) was 1232.1 ± 1.2 kg/m3. The mass density (284.06 K, 30274 kPa) was 1223.71 ± 0.97 kg/m3, the mass density (284.1 K, 10163 kPa) was 1214.93 ± 0.79 kg/m3 and the mass density (290.09 K, 59872 kPa) was 1231.63 ± 1.4 kg/m3. It also gave a mass density (291.27 K, 40686 kPa) of 1223.19 ± 1.1 kg/m3, a mass density (291.46 K, 20613 kPa) of 1214.42 ± 0.88 kg/m3 and a mass density (292.09 K, 1445.8 kPa) of 1204.99 ± 0.74 kg/m3. For the same compound, the mass density (292.09 K, 1940.4 kPa) was 1204.98 ± 0.74 kg/m3, the mass density (298.12 K, 105.9 kPa) was 1201.65 ± 0.74 kg/m3 and the mass density (298.12 K, 9550.8 kPa) was 1204.57 ± 0.79 kg/m3. It also gave a mass density (298.13 K, 10109 kPa) of 1204.56 ± 0.79 kg/m3, a mass density (298.14 K, 10428 kPa) of 1204.76 ± 0.79 kg/m3 and a mass density (298.14 K, 29887 kPa) of 1213.94 ± 0.99 kg/m3. The mass density (298.58 K, 50942 kPa) was 1222.67 ± 1.3 kg/m3, the mass density (305.03 K, 19306 kPa) was 1204.07 ± 0.88 kg/m3 and the mass density (305.53 K, 898.6 kPa) was 1194.9 ± 0.74 kg/m3. It also gave a mass density (305.54 K, 60508 kPa) of 1222.17 ± 1.4 kg/m3, a mass density (305.67 K, 40148 kPa) of 1213.41 ± 1.1 kg/m3 and a mass density (313.03 K, 9790.3 kPa) of 1194.22 ± 0.8 kg/m3. The mass density (313.04 K, 29821 kPa) was 1203.5 ± 1 kg/m3, the mass density (313.04 K, 30149 kPa) was 1203.7 ± 1 kg/m3 and the mass density (313.05 K, 10270 kPa) was 1194.38 ± 0.8 kg/m3. It also gave a mass density (313.06 K, 29280 kPa) of 1203.51 ± 1 kg/m3, a mass density (313.61 K, 50546 kPa) of 1212.83 ± 1.3 kg/m3 and a mass density (320.1 K, 328.6 kPa) of 1184.62 ± 0.74 kg/m3. It also gave a mass density (320.51 K, 19693 kPa) of 1193.85 ± 0.9 kg/m3, a mass density (321.4 K, 60815 kPa) of 1212.26 ± 1.4 kg/m3 and a mass density (321.61 K, 40890 kPa) of 1202.88 ± 1.2 kg/m3. For the same compound, the mass density (327.98 K, 48935 kPa) was 1202.42 ± 1.3 kg/m3, the mass density (328.18 K, 10050 kPa) was 1184.05 ± 0.81 kg/m3 and the mass density (328.18 K, 28863 kPa) was 1193.3 ± 1 kg/m3. The mass density (328.18 K, 29052 kPa) was 1193.14 ± 1 kg/m3, the mass density (328.18 K, 29263 kPa) was 1193.3 ± 1 kg/m3 and the mass density (328.22 K, 10050 kPa) was 1184.05 ± 0.81 kg/m3. The mass density (336.35 K, 39210 kPa) was 1192.7 ± 1.2 kg/m3, the mass density (336.68 K, 20276 kPa) was 1183.44 ± 0.92 kg/m3 and the mass density (337.09 K, 59633 kPa) was 1201.76 ± 1.5 kg/m3. The mass density (344.2 K, 29113 kPa) was 1182.9 ± 1 kg/m3, the mass density (344.31 K, 48811 kPa) was 1192.12 ± 1.3 kg/m3 and the mass density (353.68 K, 59697 kPa) was 1191.42 ± 1.5 kg/m3. For the same compound, the mass density (354.16 K, 40617 kPa) was 1182.17 ± 1.2 kg/m3.
